Experimental data as given in PubChem BioAssay (NCI).
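Step 1: Grow cells in 96-well plates. Step 2: Expose to compound for 48 hours at 5 concentrations. Step 3: Interpolate endpoints linearly; if unreached, use highest concentration. TGI is the concentration that stops growth completely.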

Key:
Test in all cases: NCI anticancer screen, dose series, 48 h
[1] = test system: COLO 205 colon
[2] = test system: HCC-2998 colon
[3] = test system: NCI-H460 lung
[4] = test system: MALME-3M melanoma
[5] = test system: RPMI-8226 leukemia
[6] = test system: CCRF-CEM leukemia
[7] = test system: DMS 273 small cell lung
[8] = test system: SK-OV-3 ovarian
[9] = test system: LXFL 529 NSCLC
[10] = test system: SNB-19 CNS
[11] = test system: M14 melanoma
[12] = test system: UACC-62 melanoma
[13] = test system: NCI-H522 lung
[14] = test system: LOX IMVI melanoma
[15] = test system: HOP-92 NSCLC
[16] = test system: U251 CNS
[17] = test system: SN12C renal
[18] = test system: NCI-H23 lung
[19] = test system: SK-MEL-2 melanoma
[20] = test system: M19-MEL melanoma
[21] = test system: SW-620 colon
[22] = test system: KM12 colon
[23] = test system: OVCAR-4 ovarian
[24] = test system: IGROV1 ovarian
[25] = test system: DLD-1 colon
[26] = test system: DMS 114 small cell lung
[27] = test system: TK-10 renal
[28] = test system: HT29 colon
[29] = test system: SK-MEL-5 melanoma
[30] = test system: UO-31 renal
[31] = test system: CAKI-1 renal
[32] = test system: KM20L2 colon
[33] = test system: HL-60(TB) leukemia
[34] = test system: K-562 leukemia
[35] = test system: OVCAR-5 ovarian
[36] = test system: SNB-75 CNS
[37] = test system: MOLT-4 leukemia
[38] = test system: RXF-631 renal
[39] = test system: SF-539 CNS
[40] = test system: OVCAR-3 ovarian
[41] = test system: HOP-62 NSCLC
[42] = test system: SF-295 CNS
[43] = test system: OVCAR-8 ovarian
[44] = test system: HOP-18 NSCLC
[45] = test system: HCT-15 colon
[46] = test system: SF-268 CNS
[47] = test system: SK-MEL-28 melanoma
[48] = test system: A549 NSCLC
[49] = test system: UACC-257 melanoma
[50] = test system: RXF 393 renal
[51] = test system: 786-0 renal
[52] = test system: EKVX NSCLC
[53] = test system: ACHN renal
[54] = test system: HCT-116 colon
[55] = test system: DU-145 prostate
[56] = test system: NCI-H226 lung
[57] = test system: NCI/ADR-RES ovarian
[58] = test system: MDA-MB-435
[59] = test system: T-47D breast
[60] = test system: HS 578T breast
[61] = test system: MDA-MB-231 breast
[62] = test system: A498 renal
[63] = test system: SNB-78 CNS
[64] = test system: MCF7 breast
[65] = test system: MDA-N
[66] = test system: PC-3 prostate
[67] = test system: SR leukemia

Measured: TGI

O=S1[C@H](c2ccccc2)c2c(-c3ccccc3)sc(-c3ccccc3)c2[C@@H]1c1ccccc1 (stereo partly drawn)
87.9 µM: [36]
27.2 µM: [13]
40.6 µM: [33]
67.9 µM: [15]
not listed: [54] | [55] | [56] | [57] | [58] | [59] | [60] | [61] | [62] | [63] | [64] | [65] | [66] | [67]
> 100 µM: all other assays above

Cc1nc2c(n1-c1ccc(Br)cc1)C(=O)c1ccccc1C2=O
> 71.1 µM: [51]
> 67.2 µM: [4]
> 74 µM: [54]
> 70.1 µM: [43]
51 µM: [66]
66 µM: [15]
> 79.2 µM: [13]
> 43.6 µM: [16]
> 65.2 µM: [39]
97 µM: [8]
> 39.4 µM: [10]
> 40.9 µM: [3]
50 µM: [60]
23.3 µM: [58]
69.9 µM: [50]
> 62.1 µM: [36]
> 64.4 µM: [24]
31.3 µM: [40]
> 85.1 µM: [12]
> 40.6 µM: [30]
> 59.6 µM: [42]
18 µM: [33]
not listed: [9] | [20] | [32] | [44]
> 100 µM: all other assays above

CC(C)(C)c1ccc2c(c1)S(=O)(=O)Nc1cccc(c1)NS(=O)(=O)c1cc(C(C)(C)C)ccc1OCCOCCO2
not listed: [6] | [9] | [13] | [32] | [33] | [55] | [57] | [58] | [59] | [60] | [61] | [64] | [65] | [66] | [67]
> 100 µM: all other assays above
